Data set [1] concerns the target T1, Protein deacetylase HDAC6 (Homo sapiens, UniProt Q9UBN7).
T1 sequence (Q9UBN7 whole entry): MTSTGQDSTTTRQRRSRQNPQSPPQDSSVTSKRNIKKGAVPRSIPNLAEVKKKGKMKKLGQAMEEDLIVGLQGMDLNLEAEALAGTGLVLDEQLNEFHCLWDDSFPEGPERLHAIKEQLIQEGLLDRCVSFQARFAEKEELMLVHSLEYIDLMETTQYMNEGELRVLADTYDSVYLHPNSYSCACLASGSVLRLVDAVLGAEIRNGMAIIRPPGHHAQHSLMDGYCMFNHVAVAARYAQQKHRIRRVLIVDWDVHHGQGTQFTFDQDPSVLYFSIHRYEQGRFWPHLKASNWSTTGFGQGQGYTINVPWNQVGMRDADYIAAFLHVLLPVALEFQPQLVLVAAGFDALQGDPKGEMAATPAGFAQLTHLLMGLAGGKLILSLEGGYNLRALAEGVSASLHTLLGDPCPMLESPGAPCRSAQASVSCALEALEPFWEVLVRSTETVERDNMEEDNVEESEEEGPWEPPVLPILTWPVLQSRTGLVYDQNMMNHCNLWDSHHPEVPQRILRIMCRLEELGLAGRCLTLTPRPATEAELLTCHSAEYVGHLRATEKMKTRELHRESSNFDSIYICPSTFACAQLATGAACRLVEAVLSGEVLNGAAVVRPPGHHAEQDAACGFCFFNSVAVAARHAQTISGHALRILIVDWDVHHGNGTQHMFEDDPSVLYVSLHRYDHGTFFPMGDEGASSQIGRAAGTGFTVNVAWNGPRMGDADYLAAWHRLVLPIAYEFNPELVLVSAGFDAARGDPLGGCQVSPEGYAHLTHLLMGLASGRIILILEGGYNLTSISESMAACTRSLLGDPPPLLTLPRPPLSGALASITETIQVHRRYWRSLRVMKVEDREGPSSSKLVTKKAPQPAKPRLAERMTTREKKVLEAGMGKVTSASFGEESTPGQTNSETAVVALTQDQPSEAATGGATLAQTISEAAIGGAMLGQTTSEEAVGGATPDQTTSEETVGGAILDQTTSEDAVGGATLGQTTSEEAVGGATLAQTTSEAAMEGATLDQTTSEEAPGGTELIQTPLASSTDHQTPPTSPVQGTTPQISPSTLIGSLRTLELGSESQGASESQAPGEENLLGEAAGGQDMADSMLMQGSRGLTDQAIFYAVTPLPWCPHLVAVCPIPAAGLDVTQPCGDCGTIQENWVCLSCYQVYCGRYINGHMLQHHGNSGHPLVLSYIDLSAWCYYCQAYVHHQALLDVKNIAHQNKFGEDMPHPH
The experiment in a line: Inhibition of HDAC6 in human HeLa cells assessed as increase in acetyl-tubulin level at 2 uM after 12 hrs by Western blot analysis. In kind it is cell-based.

Data set [2] addresses T1, Protein deacetylase HDAC6. The experiment in a line: Inhibition of HDAC6 (unknown origin) using Boc-Lys(acetyl)-AMC as substrate preincubated for 5 mins followed by substrate addition measured after 30 mins by fluorescence assay.
Data set [3] deals with Histone deacetylase (HDAC1 and HDAC2) (Homo sapiens, UniProt Q13547+Q92769). Description: Inhibition of HDAC1/2 in human HeLa nuclear extract using Boc-Lys(acetyl)-AMC as substrate preincubated for 5 mins followed by substrate addition measured after 30 mins by fluorescence assay. In kind it is ADME, protein assay.
For another data set, the target named is T2, Histone deacetylase 8 (Homo sapiens, UniProt Q9BY41).
T2 sequence (Q9BY41 whole entry): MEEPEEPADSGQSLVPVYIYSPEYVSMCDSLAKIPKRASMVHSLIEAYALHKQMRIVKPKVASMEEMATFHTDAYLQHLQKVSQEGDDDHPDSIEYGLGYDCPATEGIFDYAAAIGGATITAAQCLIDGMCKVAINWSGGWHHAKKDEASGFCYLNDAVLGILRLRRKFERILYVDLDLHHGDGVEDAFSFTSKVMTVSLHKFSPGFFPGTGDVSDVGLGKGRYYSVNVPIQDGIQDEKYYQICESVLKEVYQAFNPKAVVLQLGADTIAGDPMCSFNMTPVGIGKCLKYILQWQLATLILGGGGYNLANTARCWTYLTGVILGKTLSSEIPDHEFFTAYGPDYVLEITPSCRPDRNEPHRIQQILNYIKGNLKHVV
The experiment in a line: Inhibition of HDAC8 (unknown origin) using Boc-Lys(trifluoroacetyl)-AMC as substrate preincubated for 5 mins followed by substrate addition measured after 30 mins by fluorescence assay.

Another data set concerns the target Histone deacetylase 2 (Homo sapiens, UniProt Q92769). Description: Inhibition of HDAC2 (unknown origin) using Boc-Lys(acetyl)-AMC as substrate preincubated for 5 mins followed by substrate addition measured after 30 mins by fluorescence assay. In kind it is ADME.
Another data set relates to MOLT-4. The experiment in a line: Antiproliferative activity against human MOLT4 cells after 48 hrs by MTT assay. In kind it is functional, cell-based. The following applies: MOLT-4, 48 h.
The subject of another data set is Jurkat. The experiment in a line: Antiproliferative activity against human Jurkat cells after 48 hrs by MTT assay. It counts as functional, cell-based.
In another data set the test system is HeLa. Description: Antiproliferative activity against human HeLa cells after 48 hrs by MTT assay. In kind it is functional, cell-based.
For another data set, the system named is HEL. Description: Antiproliferative activity against human HEL cells after 48 hrs by MTT assay. In kind it is functional, cell-based.
Data set [4] in a line: Antiproliferative activity against human SK-N-BE(2) cells after 48 hrs by MTT assay. In kind it is functional, cell-based. The following applies: SKNBE2, 48 h.
The next data set deals with K562. The experiment in a line: Antiproliferative activity against human K562 cells after 48 hrs by MTT assay. In kind it is functional, cell-based. Conditions: K562, 48 h; call rule not given here.
For data set [5], the species on record is Homo sapiens. Description: Selectivity ratio of IC50 for HDAC6 (unknown origin) to IC50 for HDAC8 (unknown origin).
In the next data set the test system is PC-3. Description: Antiproliferative activity against human PC3 cells after 48 hrs by MTT assay. It counts as functional, cell-based. Conditions: PC-3, 48 h.
For data set [6], the target named is Histone deacetylase 1/2/3 (Homo sapiens, UniProt Q13547+O15379+Q92769). The experiment in a line: Inhibition of HDAC1/2/3 in human HeLa cells assessed as increase in acetyl-histone H4 level at 2 uM after 12 hrs by Western blot analysis.
Data set [7] is filed under the species Homo sapiens. Description: Selectivity ratio of IC50 for HDAC2 (unknown origin) to IC50 for HDAC8 (unknown origin).

Molecules are shown by their SMILES. Where only a bound is given, the exact number is not on record here.

Sequence of Histone deacetylase 2 (Q92769 whole entry): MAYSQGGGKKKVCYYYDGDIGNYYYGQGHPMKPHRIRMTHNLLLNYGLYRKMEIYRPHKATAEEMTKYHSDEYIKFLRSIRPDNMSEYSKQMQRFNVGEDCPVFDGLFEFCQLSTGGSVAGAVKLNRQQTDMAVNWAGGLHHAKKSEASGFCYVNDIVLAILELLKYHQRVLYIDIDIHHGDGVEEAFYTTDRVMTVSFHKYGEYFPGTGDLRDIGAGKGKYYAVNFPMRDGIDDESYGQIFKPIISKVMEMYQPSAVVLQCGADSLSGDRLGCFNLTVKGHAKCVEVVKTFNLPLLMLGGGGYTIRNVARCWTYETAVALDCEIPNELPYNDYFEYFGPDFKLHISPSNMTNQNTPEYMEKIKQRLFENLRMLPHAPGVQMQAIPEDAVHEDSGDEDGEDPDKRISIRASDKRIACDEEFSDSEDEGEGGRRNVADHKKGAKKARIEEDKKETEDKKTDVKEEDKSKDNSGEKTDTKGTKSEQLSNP

Turning to `CN1CCc2c(c3ccccc3n2Cc2ccc(C(=O)NO)cc2)C1` [TUBASTATIN A], the “inhibition (INH)” value in [1] was “Active”.

Consider `CC(C)[C@H](NS(=O)(=O)c1cccc(C(=O)NO)c1)C(=O)Nc1ccccc1`, for which the half-inhibitory concentration (IC50) was 40.5 µM in data set [2], > 20 µM in data set [3], 33.9 µM at Histone deacetylase 8 and > 100 µM against Histone deacetylase 2.

For `O=C(NO)c1cccc(S(=O)(=O)N[C@H](C(=O)Nc2ccc(Cl)cc2)c2ccccc2)c1`, the half-inhibitory concentration (IC50) in data set [3] is > 20 µM.

Regarding `O=C(/C=C/c1cccc(S(=O)(=O)Nc2ccccc2)c1)NO` [BELINOSTAT], the 50% inhibitory concentration (IC50) amounted to 0.14 µM with MOLT-4; 0.07 µM with Jurkat; 0.51 µM in the data set with HeLa; 0.1 µM with HEL; 0.31 µM in data set [4].

For `COc1ccc(NC(=O)[C@H](Cc2c[nH]c3ccccc23)NS(=O)(=O)c2cccc(C(=O)NO)c2)cc1`, the IC50 in [3] is > 20 µM.

With `O=C(CNS(=O)(=O)c1cccc(C(=O)NO)c1)Nc1ccccc1`, the IC50 in data set [2] was 14.1 µM; in [3], > 20 µM; on Histone deacetylase 8, 3.5 µM; on Histone deacetylase 2, > 100 µM.

`C[C@H](NS(=O)(=O)c1cccc(C(=O)NO)c1)C(=O)Nc1ccccc1`: the IC50 in [2] was 27.7 µM; in [3], > 20 µM; against Histone deacetylase 8 it was 24.2 µM; against Histone deacetylase 2, > 100 µM.

Regarding `O=C(CCCCCCC(=O)Nc1ccccc1)NO` [VORINOSTAT], the “inhibition (INH)” value in [1] is listed as “Active”.

As to `O=C(NO)c1cccc(S(=O)(=O)N[C@@H](Cc2c[nH]c3ccccc23)C(=O)Nc2ccc(F)cc2)c1`, the half-maximal inhibitory concentration (IC50) in data set [3] was > 20 µM.

Take `COc1ccc(NC(=O)[C@@H](NS(=O)(=O)c2cccc(C(=O)NO)c2)c2ccccc2)cc1`: the IC50 in data set [3] was > 20 µM.

Consider `O=C(NO)c1cccc(S(=O)(=O)NCCc2ccccc2)c1`, for which the IC50 was 1.8 µM in data set [2]; 6.2 µM in the data set on MOLT-4; 7.9 µM in the data set on Jurkat; > 50 µM with K562; > 20 µM in data set [3]; 0.06 µM on Histone deacetylase 8. Moreover, the IC50 with HeLa was > 50 µM; in the data set on PC-3 it was > 50 µM; on Histone deacetylase 2 it was 11.2 µM; in the data set with HEL, 32.8 µM; in [4], 25.5 µM. Also, in [1], the “inhibition (INH)” value is recorded as “Not Active”. The results for the Ratio IC50 in the data set listed under Homo sapiens [5] and in the data set listed under Homo sapiens [7] were 30 and > 180, respectively. Besides, in data set [6], the INH result is listed as “Not Active”.

With `O=C(NO)c1cccc(S(=O)(=O)N[C@@H](Cc2c[nH]c3ccccc23)C(=O)NCc2ccccc2)c1`, the concentration for half-maximal inhibition (IC50) in [2] is 24.5 µM; in data set [3], > 20 µM; on Histone deacetylase 8, 19 µM; against Histone deacetylase 2, > 100 µM.

With `O=C(NO)c1cccc(S(=O)(=O)N[C@@H](Cc2c[nH]c3ccccc23)C(=O)Nc2ccc(Cl)cc2)c1`, the 50% inhibitory concentration (IC50) in data set [3] was > 20 µM.

Take `O=C(NO)c1cccc(S(=O)(=O)NCc2ccccc2)c1`: the concentration for half-maximal inhibition (IC50) in data set [2] was 2.6 µM; in the data set with MOLT-4 it was 11.1 µM; with Jurkat it was 12.2 µM; with K562, > 50 µM; in [3] it was > 20 µM; at Histone deacetylase 8, 0.08 µM. In addition, the half-maximal inhibitory concentration (IC50) with HeLa was > 50 µM; in the data set on PC-3, > 50 µM; against Histone deacetylase 2, 47.1 µM; in the data set with HEL, > 50 µM; in [4] it was 36.2 µM. Further, the “inhibition (INH)” value in data set [1] was “Not Active”. Further, the Ratio IC50 in the data set filed under Homo sapiens [5] is 30; in the data set listed under Homo sapiens [7], > 180. In data set [6], the INH entry is recorded as “Not Active”.

Take `O=C(NO)c1cccc(S(=O)(=O)N[C@H](C(=O)Nc2ccccc2)c2ccccc2)c1`: the half-maximal inhibitory concentration (IC50) in data set [2] is 6.7 µM; in [3] it was > 20 µM; against Histone deacetylase 8 it was 0.91 µM; on Histone deacetylase 2, > 100 µM.

As for `O=C(NO)c1cccc(S(=O)(=O)N[C@H](C(=O)Nc2ccc(F)cc2)c2ccccc2)c1`, the IC50 in data set [3] was > 20 µM.

As for `O=C(NO)c1cccc(S(=O)(=O)N[C@@H](Cc2c[nH]c3ccccc23)C(=O)Nc2ccccc2)c1`, the IC50 was 5.9 µM in [2], > 20 µM in data set [3], 3 µM at Histone deacetylase 8 and 70.4 µM at Histone deacetylase 2.

Turning to `O=C(NO)c1cccc(S(=O)(=O)Nc2ccccc2)c1`, the 50% inhibitory concentration (IC50) in data set [2] is 1.5 µM; in the data set with MOLT-4 it was 22.6 µM; in the data set on Jurkat it was 28.4 µM; with K562, > 50 µM; in data set [3], > 20 µM; at Histone deacetylase 8 it was 0.05 µM. Moreover, the IC50 in the data set with HeLa was > 50 µM; in the data set with PC-3, > 50 µM; against Histone deacetylase 2 it was 14.5 µM; with HEL it was > 50 µM. The “inhibition (INH)” value in [1] is on record as “Not Active”. Besides, the results for the Ratio IC50 in the data set filed under Homo sapiens [5] and in the data set listed under Homo sapiens [7] were 30 and > 180, respectively. Moreover, the INH result in data set [6] was “Not Active”.

In the case of `O=C(NO)c1cccc(S(=O)(=O)N[C@H](C(=O)NCc2ccccc2)c2ccccc2)c1`, the IC50 was 34 µM in data set [2], > 20 µM in data set [3], 9.2 µM on Histone deacetylase 8 and > 100 µM against Histone deacetylase 2.

For `COc1ccc(Cn2ccc3ccc(C(=O)NO)cc32)cc1`, the concentration for half-maximal inhibition (IC50) with MOLT-4 is 9.4 µM; in the data set on Jurkat, 4.5 µM; with K562, > 25 µM; in the data set on HeLa, > 25 µM; with PC-3, 19.2 µM; in the data set on HEL, 10.8 µM. The same compound came in with an IC50 in [4] of 16.9 µM.

The values above are taken from ChEMBL document CHEMBL4196083, “Discovery of meta-sulfamoyl N-hydroxybenzamides as HDAC8 selective inhibitors” (Eur J Med Chem, 2018).
